According to patent publication US8937068B2, “Pyridopyrazine derivatives and their use” (Zentaris GmbH, priority 2005, dated 2015):

Assays:
BxPC3 = assay: XTT assay, anti-proliferative effect, BxPC3; assay type: cell-based; settings: Homo sapiens, BXPC-3; 45 h incubation
Experimental: The principle of this test is based on the intracellular reduction of the tetrazolium dye XTT (sodium 3′-[1-(phenylaminocarbonyl)-3,4-tetrazolium]-bis(4-methoxy-6-nitro)benzene sulfonic acid, Sigma) to a formazan dye by mitochondrial dehydrogenases. The dye is only formed by metabolically active cells and its photometrically measurable intensity is a quantitative indicator for the presence of living cells. The reduction of dye formation by incubation of the cells with substances serves as a parameter for the anti-proliferative effect.
The tumour cell lines (ATCC) were injected into 96-well microtitre plates in a defined cell number (5000 cells/well for BxPC3 and Hct116; 10000 cells/well for MDA MB468) and then incubated overnight in an incubator at 37° C., 5% CO2 and 95% air humidity. The test substances were prepared as stock solutions (10 mM) in DMSO. […] The cell plates were then incubated for 45 h in an incubator at 37° C., 5% CO2 and 95% air humidity.
For the detection reaction the substrate XTT was mixed with PMS (N-Methyl dibenzopyrazine methylsulfate, Sigma) and added to the cells so that a final concentration of 325 μg XTT/ml and 2.5 μg PMS/ml was obtained. It was then incubated for 3 h at 37° C., 95% air humidity. The formazan salt formed by the cellular dehydrogenases could then be quantified by adsorption at 490 nm.
The % inhibition value was evaluated by means of the following formula from the values for the optical densities measured in each case at 490 nm:
Eight determinations were made for each control and two for the substance samples. The 0% control contains no cells, the 100% control (proliferation control) contains no test substance. The EC50 values were determined using GraphPadPrism.

| EC50 (BxPC3) | melting point | SMILES |
| --- | --- | --- |
| 12 µM | 230 °C (dec.) | C=CCNC(=S)Nc1ccc2ncc(-c3ccc(O)cc3)nc2n1 [Compound 30, 1-allyl-3-[3-(4-hydroxy-phenyl)-pyrido[2,3-b]pyrazin-6-yl]-thiourea] |
| 10 µM | – | CCNC(=O)Nc1ccc2ncc(-c3ccc(O)c(OC)c3)nc2n1 [Compound 124, 1-Ethyl-3-[3-(4-hydroxy-3-methoxy-phenyl)-pyrido[2,3-b]pyrazin-6-yl]-urea] |
| > 50 µM | – | O=C(NCCCCO)Nc1ccc2ncc(-c3ccccc3)nc2n1 [Compound 146, 1-(4-Hydroxy-butyl)-3-(3-phenyl-pyrido[2,3-b]pyrazin-6-yl)-urea] |
| 0.9 µM | – | CCNC(=O)Nc1ccc2ncc(Nc3ccc(C)cc3)nc2n1 [Compound 150, 1-Ethyl-3-(3-p-tolylamino-pyrido[2,3-b]pyrazin-6-yl)-urea] |
